Experimental data: ChEMBL document CHEMBL3885861, “Open TG-GATES”

Species on record: Rattus norvegicus
Experiment: Open TG-GATES - Regimen: Single
Type: toxicity, organism-based, Sprague-Dawley
Design: regimen Single, gender Male, age 6 weeks
Conditions: in vivo, po, route gavage; for gamma-GTP / ALP / ALT / AST / CRE / Ca / Cl / DBIL / GLC / IP / K / LDH / Na / PL / RALB / TBIL / TC / TG / TP / BUN: tissue Plasma; for Bas / Eos / Fbg / Hb / Ht / Lym / MCH / MCHC / MCV / Mono / PT / Plat / RBC / Ret / WBC / APTT / Neu: tissue Blood; for KIDNEY_L / KIDNEY_R / KIDNEY_TOTAL: tissue Kidney; for LIVER: tissue Liver
[1] = 100 mg/kg, 24 h, dose level Low

## COC(=O)C1=C(C)NC(C)=C(C(=O)OC)C1c1ccccc1[N+](=O)[O-] [NIFEDIPINE]
0 mg/kg, 24 h, dose level Control
  gamma-GTP: 1 IU/L
100 mg/kg, 3 h, dose level Low
  TERMINAL_BW: 201.3 g
  Bas: 0%
  Eos: 1%
  Fbg: 279.6 mg/dL
  Hb: 12.9 g/dL
  Ht: 39.2%
  Lym: 71.8%
  MCH: 20.6 pg
  MCHC: 32.8%
  MCV: 62.6 fL
  Mono: 4.4%
  PT: 14.9 s
  Plat: 123.6 x10_4/uL
  RBC: 625.8 x10_4/ul
  Ret: 9.3%
  WBC: 127.1 x10_2/uL
  KIDNEY_L: 0.9 g
  KIDNEY_R: 0.9 g
  KIDNEY_TOTAL: 1.8 g
  LIVER: 7.9 g
  ALP: 1399 IU/L
  ALT: 44.8 IU/L
  AST: 78.6 IU/L
  CRE: 0.3 mg/dL
  Ca: 11.7 mg/dL
  Cl: 98.2 meq/L
  DBIL: 0.01 mg/dL
  GLC: 227.6 mg/dL
  IP: 9 mg/dL
  K: 4.7 meq/L
  LDH: 89.4 IU/L
  Na: 135.6 meq/L
  PL: 132 mg/dL
  RALB: 2.5 g/dL
  TBIL: 0.042 mg/dL
  TC: 76.2 mg/dL
  TG: 31.6 mg/dL
  TP: 5.3 g/dL
  gamma-GTP: 1.2 IU/L
100 mg/kg, 6 h, dose level Low
  TERMINAL_BW: 203.8 g
  APTT: 16.8 s
  Bas: 0%
  Eos: 0.4%
  Fbg: 278.2 mg/dL
  Hb: 12.8 g/dL
  Ht: 39.2%
  Lym: 76.2%
  MCH: 20.2 pg
  MCHC: 32.6%
  MCV: 61.7 fL
  Mono: 3.6%
  Neu: 18.6%
  PT: 15 s
  Plat: 124 x10_4/uL
  RBC: 634.8 x10_4/ul
  Ret: 9.2%
  WBC: 96.4 x10_2/uL
  KIDNEY_L: 0.9 g
  KIDNEY_R: 0.9 g
  KIDNEY_TOTAL: 1.7 g
  LIVER: 7.8 g
  ALP: 1423.2 IU/L
  ALT: 54.6 IU/L
  AST: 82.2 IU/L
  BUN: 32.4 mg/dL
  CRE: 0.2 mg/dL
  Ca: 11.3 mg/dL
  Cl: 98.6 meq/L
  DBIL: 0.01 mg/dL
  GLC: 220.6 mg/dL
  IP: 10.7 mg/dL
  K: 5.2 meq/L
  LDH: 72.8 IU/L
  Na: 135.8 meq/L
  PL: 141.2 mg/dL
  RALB: 2.6 g/dL
  TBIL: 0.042 mg/dL
  TC: 86.4 mg/dL
  TG: 20.8 mg/dL
  TP: 5.5 g/dL
  gamma-GTP: 1.2 IU/L
100 mg/kg, 9 h, dose level Low
  TERMINAL_BW: 204.8 g
  APTT: 15.8 s
  Bas: 0%
  Eos: 0.6%
  Fbg: 292.2 mg/dL
  Hb: 12.7 g/dL
  Ht: 38.7%
  Lym: 80.2%
  MCH: 20.8 pg
  MCHC: 32.9%
  MCV: 63.3 fL
  Mono: 2.8%
  Neu: 14.8%
  PT: 14.6 s
  Plat: 127.7 x10_4/uL
  RBC: 610.8 x10_4/ul
  Ret: 9.7%
  WBC: 116.7 x10_2/uL
  KIDNEY_L: 0.9 g
  KIDNEY_R: 0.9 g
  KIDNEY_TOTAL: 1.7 g
  LIVER: 7.4 g
  ALP: 1305.6 IU/L
  ALT: 46.4 IU/L
  AST: 75.6 IU/L
  BUN: 17.8 mg/dL
  CRE: 0.2 mg/dL
  Ca: 10.9 mg/dL
  Cl: 102 meq/L
  DBIL: 0.008 mg/dL
  GLC: 178.6 mg/dL
  IP: 10.8 mg/dL
  K: 4.6 meq/L
  LDH: 76 IU/L
  Na: 138.6 meq/L
  PL: 152 mg/dL
  RALB: 2.6 g/dL
  TBIL: 0.046 mg/dL
  TC: 90.6 mg/dL
  TG: 28.2 mg/dL
  TP: 5.4 g/dL
  gamma-GTP: 1.2 IU/L
[1]
  TERMINAL_BW: 206.2 g
  APTT: 16.5 s
  Bas: 0%
  Eos: 1%
  Fbg: 267.8 mg/dL
  Hb: 13 g/dL
  Ht: 40.5%
  Lym: 65.6%
  MCH: 20.8 pg
  MCHC: 32.2%
  MCV: 64.5 fL
  Mono: 3.8%
  Neu: 29%
  PT: 13.9 s
  Plat: 133.1 x10_4/uL
  RBC: 629 x10_4/ul
  Ret: 8.8%
  WBC: 87.9 x10_2/uL
  KIDNEY_L: 0.9 g
  KIDNEY_R: 0.9 g
  KIDNEY_TOTAL: 1.8 g
  LIVER: 9.3 g
  ALP: 2046.4 IU/L
  ALT: 44.4 IU/L
  AST: 70.8 IU/L
  BUN: 14.6 mg/dL
  CRE: 0.2 mg/dL
  Ca: 10.6 mg/dL
  Cl: 109.4 meq/L
  DBIL: 0.016 mg/dL
  GLC: 177 mg/dL
  IP: 7.4 mg/dL
  K: 4.4 meq/L
  LDH: 82.6 IU/L
  Na: 146 meq/L
  PL: 132.8 mg/dL
  RALB: 2.6 g/dL
  TBIL: 0.03 mg/dL
  TC: 68.4 mg/dL
  TG: 87.8 mg/dL
  TP: 5.5 g/dL
  gamma-GTP: 1.2 IU/L
300 mg/kg, 3 h, dose level Middle
  TERMINAL_BW: 203.9 g
